Data on one substance can be found in patent US11370841B2, “Methods of treating fibroblast growth factor 19-mediated cancers and tumors” (NGM Biopharmaceuticals, Inc., priority 2016, dated 2022).

For one data set, the system named is hepatic mRNA levels. In words: Hepatic gene expression in FGF19-treated db/db mice (qRT-PCR).
The test system of data set [1] is primary human hepatocytes. The experiment in a line: In vitro pSTAT3 activation in primary human hepatocytes. To be noted: purified primary human hepatocytes, 50 ng/ml. Type of data set: cell-based. On the procedure: In vitro pSTAT3 activation. Primary human hepatocytes were isolated from consenting donors using a modified collagenase/pronase method (BioReclamation/IVT). Cells were diluted in attachment media (DMEM supplemented with 2 mM glutamine, 100 unit/ml penicillin, 100 unit/ml streptomycin, and 10% FBS), and cells were plated on collagen-coated 6-well plate (Becton Dickinson). Four hours later, cells were changed into William's E media containing dexamethasone/T3/insulin and cultured for 16 hours at 37° C. When indicated, 50 ng/ml FGF19 protein or 50 ng/ml human IL-6 (Peprotech) were added.
Cell extracts were prepared in 50 mM Tris-Cl, PH 7.2, 150 mM NaCl, 1% NP-40, 0.1% SDS, 0.5% sodium deoxycholate supplemented with a protease inhibitor cocktail (Roche) and phosphatase inhibitors (Sigma, phosphatase inhibitor cocktail set 2 and set 3), and protein concentrations were determined by BCA protein assay (Thermo Scientific).
Immunoblotting. […] Membranes were washed in TBST extensively, and bound proteins were detected with horseradish peroxidase-conjugated goat-anti-mouse IgG or goat-anti-rabbit IgG antibodies (GE Healthcare) for 1 hour at room temperature. […]
To investigate an in vitro direct effect of FGF19 on STAT3 activation in isolated hepatocytes, pSTAT3^Y705 levels in primary cultures of hepatocytes upon FGF19 stimulation were analyzed by western blotting. […]

The test system of data set [2] is primary mouse hepatocytes. The experiment in a line: In vitro BrdU incorporation in primary mouse hepatocytes. Type of data set: cell-based. To be noted: 48 hours incubation. How it is done:
FIGS. 2A-2E depict non-cell autonomous promotion of hepatocellular proliferation by FGF19. 11 week old mice (n=5 per group) were implanted with osmotic pumps releasing BrdU (8.5 mg/kg/day) and FGF19 protein (0.4 mg/kg/day). Livers were harvested 6 days post-implant. (FIG. 2A) Flow cytometry analysis of BrdU-labeled livers is shown. Representative histograms from hepatocytes stained with 7-ADD and anti-BrdU-APC are shown. (FIG. 2B) BrdU-positive hepatocytes as a percentage of total hepatocytes from vehicle (V)-treated (n=5) or FGF19-treated (n=5) mice were quantified by flow cytometry. (FIG. 2C) Shown are circulating FGF19 levels on day 6 post-implant of osmotic pumps. (FIG. 2D) Lack of proliferative effects of FGF19 on primary mouse hepatocytes. Primary cultures of hepatocytes isolated from mouse liver were incubated with recombinant FGF19 protein at the indicated concentrations for 48 hours and BrdU was added during the last 20 hours of incubation. BrdU incorporation was determined using a luminescence method. Mouse hepatocyte growth factor (mHGF) was included as a positive control. RLU, relative luminescence unit. (FIG. 2E) Lack of proliferative effects of FGF19 on primary human hepatocytes. Primary cultures of hepatocytes isolated from human liver were incubated with recombinant FGF19 protein. Human hepatocyte growth factor (hHGF) was included as a positive control. […]

The subject of the next data set is FGF19-mediated HCC. In words: Anti-IL-6 treatment in Mdr2-/- mice expressing AAV-FGF19. It is filed as in vivo. To be noted: prolonged expression of FGF19. On the procedure:
Blood parameters. […] Serum insulin was assessed with ELISA kits from ALPCO. […] All assays were performed according to the manufacturers' instructions.
Histology and immunohistochemistry. […] Hematoxylin and eosin staining was performed using standard methods. […] When indicated, sections were counterstained with hematoxylin.
Anti-IL-6 treatment in Mdr2^−/− mice. […] Anti-IL-6 treatment started 14 weeks after AAV injection. Mice were dosed with anti-mouse IL-6 antibody (Bio-X-Cell) or an isotype control antibody (Bio-X-Cell) once weekly i.p. at 10 mg/kg for a total of 10 doses. Mice were euthanized 24 weeks post-AAV administration for liver tumor assessment. When indicated, Mdr2^−/− mice injected with AAV-GFP serve as controls for evaluating serum levels of liver enzymes.

Where [3] appears, read: FGF19 protein 1 mg/kg i.p., 2 hours.

For the substance “FGF19: Fibroblast growth factor 19, mature human 194 amino acid polypeptide (SEQ ID NO: 1); recombinant protein or AAV-expressed”, in the data set on hepatic mRNA levels (setting [3]), the “Hepatic mRNA levels of IL-6” value is recorded as “increased significantly”; the “RNA levels of IL-11, LIF, OSM, CNTF and CTF1” value is “remained unchanged or undetectable”. In addition, in the data set with hepatic mRNA levels (acute FGF19 treatment), the “Hepatic Cyp7a1 mRNAs” value is reported as “efficiently suppressed”. In data set [1], the “STAT3 activation (pSTAT3 Y705)” value is “lack of STAT3 activation”. In addition, the BrdU signal result in data set [2] is on record as “no increase”. Moreover, in the data set on FGF19-mediated HCC, the Liver tumor formation entry is reported as “induced liver tumor formation”.
